Literature values, collected in patent US20040192587A9, “Zinc formulations as a prophylactic treatment for the common cold” (priority 2002, published 2004).

What was measured:
[1] = tested on: common cold; settings: tablet with about 23 mg elemental zinc dissolved in the mouth every two hours during 12 to 16 waking hours; sixty-five humans; untreated group 10.8 days
[2] = tested on: rhinovirus common colds; settings: large prophylactic oral doses, as much as 2 grams per day

Molecule	duration of colds [1] [days]	frequency of acquisition of rhinovirus common colds or amount of virus shedding [2]
zinc gluconate	3.9	–
O=C1O[C@H]([C@@H](O)CO)C(O)=C1O [vitamin C]	–	have not altered
